Measured values reported in the RepoRT retention time repository (doi:10.1016/j.jhazmat.2019.121712).

Assay: Thermo Scientific Acclaim RSLC 120 C18, 100 × 2.1 mm, 2.2 µm, 30 °C; A: 90% water + 10% methanol + 0.01% formic acid + 5 mM ammonium formate; B: methanol + 0.01% formic acid + 5 mM ammonium formate; gradient (min/%B) 0.1/1 3/39 14/99.9 16/99.9
Conditions: stereoisomer not certain

| LC retention time [min] | SMILES |
| --- | --- |
| 10.5 | CSc1nc(NC2CC2)nc(NC(C)(C)C)n1 |
| 6.82 | COc1cc(NC(C)CCCN)c2ncccc2c1 (configuration not stated) |
| 5.91 | CC(C)NCC(O)COc1ccc(COCCOC(C)C)cc1 (configuration not stated) |
| 4.33 | CCNCC(=O)Nc1c(C)cccc1C |
| 5.74 | CC(CCc1ccccc1)NCC(O)c1ccc(O)c(C(N)=O)c1 (configuration not stated) |
| 12 | CC(C)OC(=O)c1cc(C(=O)OC(C)C)cc([N+](=O)[O-])c1 |
| 4.89 | CCc1c(C)[nH]c2c1C(=O)C(CN1CCOCC1)CC2 (configuration not stated) |
| 15.1 | CC1CCC2(OC1)OC1CC3C4CC=C5CC(O)CCC5(C)C4CCC3(C)C1C2C (configuration not stated) |
| 8.87 | COCCCOc1cc(CC(CC(N)C(O)CC(C(=O)NCC(C)(C)C(N)=O)C(C)C)C(C)C)ccc1OC (configuration not stated) |
| 8.29 | CCc1cc2cc(OC)c(OC)cc2c(Cc2ccccc2)n1 |
| 3.94 | CC(=O)Nc1c(C)n(C)n(-c2ccccc2)c1=O |
| 9.26 | CN(C)CCCn1c2c(c3ccccc31)CCCCCC2 |
| 3.73 | CN1C2CCC1CC(OC(=O)C(O)c1ccccc1)C2 (configuration not stated) |
| 3.23 | CC(C)(C)NCC(O)c1ccc(O)c(CO)c1 (configuration not stated) |
| 7.23 | CN1CCC(OC(c2ccccc2)c2ccccc2)CC1 |
| 7.25 | CCC1OC(=O)C(C)C(=O)C(C)C(OC2OC(C)CC(N(C)C)C2O)C(C)(OC)CC(C)C(=O)C(C)C2N(CCCCn3cnc(-c4cccnc4)c3)C(=O)OC12C (configuration not stated) |
| 4.21 | CC1(C)SC2C(NC(=O)C(N)c3ccccc3)C(=O)N2C1C(=O)O (configuration not stated) |
| 9.59 | COc1cc(C=C2CCCC(=Cc3ccc(O)c(OC)c3)C2=O)ccc1O |
| 14.9 | Cc1ccc(N=Nc2c(O)ccc3ccccc23)c(C)c1 |
| 8.54 | CCN(CC)CCCOC(=O)C1(c2ccccc2)CC2CCC1C2 (configuration not stated) |

| LC retention time [min] | SMILES |
| --- | --- |
| 3.97 | CN=C(NC)NCc1ccccc1 |
| 7.21 | CNCCN1C(=O)C(OC(C)=O)C(c2ccc(OC)cc2)Sc2ccccc21 (configuration not stated) |
| 13.4 | CCCCC(CC)COC(=O)C(C#N)=C(c1ccccc1)c1ccccc1 (configuration not stated) |
| 7.84 | CC12C=CC(=O)C=C1CCC1C2C(O)CC2(C)C1CCC2(O)C(=O)CO (configuration not stated) |
| 6.66 | COC(=O)Nc1nc2ccc(S(=O)c3ccccc3)cc2[nH]1 (configuration not stated) |
| 9.04 | CCOc1ccc(NC(=O)OC(C)C)cc1OCC |
| 5.47 | O=C(Nc1ccc(C(=O)O)c(O)c1)c1ccccc1 |
| 4.09 | Cn1c(=O)c2c(ncn2CCO)n(C)c1=O |
| 7.19 | CCc1cccc(CC)c1N(COC)C(=O)CS(=O)(=O)O |
| 11.2 | CC(=O)C1CCC2C3CCC4=CC(=O)CCC4(C)C3CCC12C (configuration not stated) |
| 12.9 | CCC(C)(C)c1ccc(CC(C)CN2CC(C)OC(C)C2)cc1 (configuration not stated) |
| 3.49 | CN(C)CCc1c[nH]c2ccc(Cn3cncn3)cc12 |
| 10.7 | CCCN(CCC)C(=O)SCC |
| 8.12 | CCCCOCCOCCSC#N |
| 2.53 | Nc1nc(=S)c2[nH]cnc2[nH]1 |
| 14.2 | COC1CC(OC2C(C)OC(OC3C(C)=CCC4CC(CC5(CCC(C)C(C(C)C)O5)O4)OC(=O)C4C=C(C)C(O)C5OCC(=CC=CC3C)C45O)CC2OC)OC(C)C1O (configuration not stated) |
| 11.6 | CNC(C)C1CCC(N)C(OC2C(N)CC(N)C(OC3OCC(C)(O)C(NC)C3O)C2O)O1 (configuration not stated) |
| 9.15 | C#CC1(O)CCC2C3CCC4=CC(=O)CCC4C3CCC21C (configuration not stated) |
| 8.41 | CCCCOc1cc(C(=O)NCCN(CC)CC)c2ccccc2n1 |
| 5.79 | CNCCC(c1ccccc1)c1ccccn1 (configuration not stated) |

| LC retention time [min] | SMILES |
| --- | --- |
| 7.81 | CCCNCC(O)COc1ccccc1C(=O)CCc1ccccc1 (configuration not stated) |
| 8.83 | CCC(C)OC(=O)N1CCCCC1CCO (configuration not stated) |
| 1.52 | CCOC1OC(C(=O)O)C(O)C(O)C1O (configuration not stated) |
| 6.54 | CCCC1C(=O)N2C(N(C)C)=Nc3ccc(C)cc3N2C1=O (configuration not stated) |
| 7.63 | C[N+]1([O-])CCN2c3ccccc3Cc3ccccc3C2C1 (configuration not stated) |
| 4.63 | Cc1cc(=O)n(-c2ccccc2)n1C |
| 11.8 | Cc1cccc(C)c1OCC(=O)NC(Cc1ccccc1)C(O)CC(Cc1ccccc1)NC(=O)C(C(C)C)N1CCCNC1=O (configuration not stated) |
| 2.94 | CCN1CCCC1CNC(=O)c1cc(S(N)(=O)=O)ccc1OC (configuration not stated) |
| 9.36 | OCCN(CCO)c1nc(N2CCCCC2)c2nc(N(CCO)CCO)nc(N3CCCCC3)c2n1 |
| 6.15 | c1ccc2[nH]c(-c3cscn3)nc2c1 |
| 5.32 | CCn1nc(C(=O)O)c(=O)c2cc3c(cc21)OCO3 |
| 3.21 | CCN(CC)CCOC(=O)c1ccc(N)cc1 |
| 10.2 | CCCCN1CC(=O)N2C(Cc3c([nH]c4ccccc34)C2c2ccc3c(c2)OCO3)C1=O (configuration not stated) |
| 3.88 | CCN1CCCC1CNC(=O)c1cc(S(=O)(=O)CC)c(N)cc1OC (configuration not stated) |
| 9.55 | CCOC(=O)C(CCc1ccccc1)NC(C)C(=O)N1C(C(=O)O)CC2CCCCC21 (configuration not stated) |
| 12.4 | CCC(=O)OC(OP(=O)(CCCCc1ccccc1)CC(=O)N1CC(C2CCCCC2)CC1C(=O)O)C(C)C (configuration not stated) |
| 1.31 | CC(O)CN1CCN(CC(=O)O)CCN(CC(=O)O)CCN(CC(=O)O)CC1 (configuration not stated) |
| 4.28 | CC(=O)N=c1sc(S(N)(=O)=O)nn1C |
| 4.44 | COc1nccnc1NS(=O)(=O)c1ccc(N)cc1 |
| 1.23 | NC(Cc1cnc[nH]1)C(=O)O (configuration not stated) |

| SMILES | LC retention time [min] |
| --- | --- |
| COc1ccc(N)cc1N | 2.37 |
| N#CC(CCN1CCC(C(N)=O)(N2CCCCC2)CC1)(c1ccccc1)c1ccccc1 | 8.19 |
| CCOP(=O)(OCC)Oc1cc(C)nc(C(C)C)n1 | 8.65 |
| CCCCCn1cc(C(=O)Cc2ccccc2OC)c2ccccc21 | 11.8 |
| CCN(CC)C(=O)C1C=C2c3cccc4[nH]cc(c34)CC2NC1 (configuration not stated) | 5.56 |
| CN1CCCCC(n2cc(C(=O)c3cccc4ccccc34)c3ccccc32)C1 (configuration not stated) | 8.61 |
| OC(c1ccccc1)(c1ccccc1)C1CCCCN1 (configuration not stated) | 5.78 |
| CCCC(NC)C(=O)c1ccccc1 (configuration not stated) | 4.89 |
| Cc1ccc(C(=O)C(C)N2CCCC2)cc1 (configuration not stated) | 4.76 |
| CCN(CC)c1nc(C)cc(OP(=S)(OC)OC)n1 | 11.3 |
| CCS(=O)Cc1ccccc1OC(=O)NC (configuration not stated) | 4.7 |
| COc1cc(SC(C)C)c(OC)cc1CCN | 6.69 |
| CCCCOC(=O)c1ccccc1C(=O)OCc1ccccc1 | 12.4 |
| CCOP(=O)(NC(C)C)Oc1ccc(S(C)(=O)=O)c(C)c1 (configuration not stated) | 7.21 |
| CCCCCn1cc(C(=O)c2cccc3ccccc23)c2cc(O)ccc21 | 11.3 |
| CCc1ccc(C(=O)NN(C(=O)c2cc(C)cc(C)c2)C(C)(C)C)cc1 | 10.4 |
| CC=C1CC(C)C(C)(O)C(=O)OCC2=CC[N+]3([O-])CCC(OC1=O)C23 (configuration not stated) | 5.07 |
| O=C(O)c1ccccc1C(=O)Nc1cccc2ccccc12 | 6.75 |
| Cc1cccc2sc3nncn3c12 | 5.93 |
| CN(C)CCc1c[nH]c2ccc(O)cc12 | 2.82 |
| CNCC12CCC(c3ccccc31)c1ccccc12 | 6.52 |
| CC(COc1ccc(Oc2ccccc2)cc1)Oc1ccccn1 (configuration not stated) | 12.6 |
| COC(=O)C(C)N(C(=O)c1ccco1)c1c(C)cccc1C (configuration not stated) | 8.99 |
| CNC(=O)ON=C(C)SC | 4.16 |
| COC(=O)C(C)N(C(=O)Cc1ccccc1)c1c(C)cccc1C (configuration not stated) | 10.9 |
| CC(C)N(CCc1c[nH]c2ccccc12)C(C)C | 4.87 |

| SMILES | LC retention time [min] |
| --- | --- |
| CCCCCn1cc(C(=O)Cc2ccc(OC)cc2)c2ccccc21 | 11.6 |
| CNC(=O)Oc1cc(C)c(S(C)(=O)=O)c(C)c1 | 5.28 |
| CNC(=O)Oc1cccc2c1OC(C)(C)O2 | 7.02 |
| C#CCOS(=O)OC1CCCCC1Oc1ccc(C(C)(C)C)cc1 (configuration not stated) | 12.8 |
| COC(=O)C(NC(=O)c1cn(CC2CCCCC2)c2ccccc12)C(C)(C)C (configuration not stated) | 12.4 |
| CNCC(O)c1ccc(O)cc1 (configuration not stated) | 1.6 |
| COP(=S)(OC)SCN1C(=O)c2ccccc2C1=O | 8.94 |
| CNC(C)C(=O)c1ccc(OC)cc1 (configuration not stated) | 4.16 |
| COc1ccc(-c2ccccc2)cc1NNC(=O)OC(C)C | 9.87 |
| COc1cccc(C(=O)CCNC(C)C(O)c2ccccc2)c1 (configuration not stated) | 6.14 |
| CCOP(=S)(OCC)Oc1cnccn1 | 8.35 |
| CC=C1CC(C)C(C)(O)C(=O)OCC2=CCN(C)CCC(OC1=O)C2=O (configuration not stated) | 5.16 |
| CCCCn1cc(C(=O)c2c(C)ccc3ccccc23)c2ccccc21 | 12.3 |
| CC(C(=O)c1ccc2c(c1)OCO2)N(C)C (configuration not stated) | 3.78 |
| CCCCn1cc(C(=O)c2cccc3ccccc23)c2ccc(O)cc21 | 10.6 |
| CCSc1cc(OC)c(CCN)cc1OC | 5.88 |
| CCCCCCC(C)(C)c1cc(O)c2c(c1)OC(C)(C)C1CC=C(CO)CC21 (configuration not stated) | 13.5 |
| CN(C)CCc1c[nH]c2ccccc12 | 3.94 |
| CCC(C(N)=O)N1CCCC1=O (configuration not stated) | 3.74 |
| CC1CC(C)C(=O)C(C(O)CC2CC(=O)NC(=O)C2)C1 (configuration not stated) | 5.99 |
| COc1ccc2[nH]cc(CC(C)N)c2c1 (configuration not stated) | 4.36 |
| COc1ccc(C(CN(C)C)C2(O)CCCCC2)cc1 (configuration not stated) | 6.14 |
| CCCCNC(=O)n1c(NC(=O)OC)nc2ccccc21 | 5.46 |
| CN(C)C(=S)SSC(=S)N(C)C | 6.8 |
| Oc1ccc2c3c1OC1C(O)C=CC4C(C2)NCCC341 (configuration not stated) | 2.71 |
| CC(C)NCC(O)c1ccc(N)c(C#N)c1 (configuration not stated) | 2.99 |
